How the values were obtained:
D-542MG = test: cells; type: functional, cell-based, Homo sapiens; details: Homo sapiens, D-542MG
Description: SANGER: Inhibition of human D-542MG cell growth in a cell viability assay.

DG-75 = test: cells; type: functional, cell-based, Homo sapiens; details: Homo sapiens, DG-75
Description: SANGER: Inhibition of human DG-75 cell growth in a cell viability assay.

Daudi = test: cells; type: functional, cell-based, Homo sapiens; details: Homo sapiens, Daudi
Description: SANGER: Inhibition of human Daudi cell growth in a cell viability assay.

FTC-133 = test: cells; type: functional, cell-based, Homo sapiens; details: Homo sapiens, FTC-133
GDM-1 = test: cells; type: functional, cell-based, Homo sapiens; details: Homo sapiens, GDM-1
Description: SANGER: Inhibition of human GDM-1 cell growth in a cell viability assay.

H4 = test: cells; type: functional, cell-based, Homo sapiens; details: Homo sapiens, H4
Description: SANGER: Inhibition of human H4 cell growth in a cell viability assay.

HCC1937 = test: cells; type: functional, cell-based, Homo sapiens; details: Homo sapiens, HCC1937
Description: SANGER: Inhibition of human HCC1937 cell growth in a cell viability assay.

HTC-C3 = test: cells; type: functional, cell-based, Homo sapiens; details: Homo sapiens, HTC-C3
Description: SANGER: Inhibition of human HTC-C3 cell growth in a cell viability assay.

HuO-3N1 = test: cells; type: functional, cell-based, Homo sapiens; details: Homo sapiens, HuO-3N1
Description: SANGER: Inhibition of human HuO-3N1 cell growth in a cell viability assay.

IST-SL2 = test: cells; type: functional, cell-based, Homo sapiens; details: Homo sapiens, IST-SL2
Description: SANGER: Inhibition of human IST-SL2 cell growth in a cell viability assay.

KP-4 = test: cells; type: functional, cell-based, Homo sapiens; details: Homo sapiens, KP-4
Description: SANGER: Inhibition of human KP-4 cell growth in a cell viability assay.

KU-19-19 = test: cells; type: functional, cell-based, Homo sapiens; details: Homo sapiens, KU-19-19
Description: SANGER: Inhibition of human KU-19-19 cell growth in a cell viability assay.

KYSE-270 = test: cells; type: functional, cell-based, Homo sapiens; details: Homo sapiens, KYSE-270
Description: SANGER: Inhibition of human KYSE-270 cell growth in a cell viability assay.

KYSE-70 cell line = test: cells; type: functional, cell-based, Homo sapiens; details: Homo sapiens, KYSE-70
Description: SANGER: Inhibition of human KYSE-70 cell growth in a cell viability assay.

MC-CAR = test: cells; type: functional, cell-based, Homo sapiens; details: Homo sapiens, MC-CAR
Description: SANGER: Inhibition of human MC-CAR cell growth in a cell viability assay.

ME-180 = test: cells; type: functional, cell-based, Homo sapiens; details: Homo sapiens, ME-180
Description: SANGER: Inhibition of human ME-180 cell growth in a cell viability assay.

MG-63 = test: cells; type: functional, cell-based, Homo sapiens; details: Homo sapiens, MG-63
Description: SANGER: Inhibition of human MG-63 cell growth in a cell viability assay.

NCI-H1437 = test: cells; type: functional, cell-based, Homo sapiens; details: Homo sapiens, NCI-H1437
Description: SANGER: Inhibition of human NCI-H1437 cell growth in a cell viability assay.

NCI-H1993 = test: cells; type: functional, cell-based, Homo sapiens; details: Homo sapiens, NCI-H1993
Description: SANGER: Inhibition of human NCI-H1993 cell growth in a cell viability assay.

NCI-H719 = test: cells; type: functional, cell-based, Homo sapiens; details: Homo sapiens, NCI-H719
Description: SANGER: Inhibition of human NCI-H719 cell growth in a cell viability assay.

NCI-H748 = test: cells; type: functional, cell-based, Homo sapiens; details: Homo sapiens, NCI-H748
Description: SANGER: Inhibition of human NCI-H748 cell growth in a cell viability assay.

NY = test: cells; type: functional, cell-based, Homo sapiens; details: Homo sapiens, NY
Description: SANGER: Inhibition of human NY cell growth in a cell viability assay.

OAW-42 = test: cells; type: functional, cell-based, Homo sapiens; details: Homo sapiens, OAW-42
Description: SANGER: Inhibition of human OAW-42 cell growth in a cell viability assay.

OE33 = test: cells; type: functional, cell-based, Homo sapiens; details: Homo sapiens, OE33
Description: SANGER: Inhibition of human OE33 cell growth in a cell viability assay.

PA-1 = test: cells; type: functional, cell-based, Homo sapiens; details: Homo sapiens, PA-1
Description: SANGER: Inhibition of human PA-1 cell growth in a cell viability assay.

RMG-I = test: cells; type: functional, cell-based, Homo sapiens; details: Homo sapiens, RMG-I
Description: SANGER: Inhibition of human RMG-I cell growth in a cell viability assay.

RO82-W-1 = test: cells; type: functional, cell-based, Homo sapiens; details: Homo sapiens, RO82-W-1
Description: SANGER: Inhibition of human RO82-W-1 cell growth in a cell viability assay.

RPMI-2650 = test: cells; type: functional, cell-based, Homo sapiens; details: Homo sapiens, RPMI-2650
Description: SANGER: Inhibition of human RPMI-2650 cell growth in a cell viability assay.

RT-112 = test: cells; type: functional, cell-based, Homo sapiens; details: Homo sapiens, RT-112
Description: SANGER: Inhibition of human RT-112 cell growth in a cell viability assay.

SBC-5 = test: cells; type: functional, cell-based, Homo sapiens; details: Homo sapiens, SBC-5
Description: SANGER: Inhibition of human SBC-5 cell growth in a cell viability assay.

SCC-3 = test: cells; type: functional, cell-based, Homo sapiens; details: Homo sapiens, SCC-3
Description: SANGER: Inhibition of human SCC-3 cell growth in a cell viability assay.

SKG-IIIa = test: cells; type: functional, cell-based, Homo sapiens; details: Homo sapiens, SKG-IIIa
Description: SANGER: Inhibition of human SKG-IIIa cell growth in a cell viability assay.

SW780 = test: cells; type: functional, cell-based, Homo sapiens; details: Homo sapiens, SW780
Description: SANGER: Inhibition of human SW780 cell growth in a cell viability assay.

SiHa = test: cells; type: functional, cell-based, Homo sapiens; details: Homo sapiens, SiHa
Description: SANGER: Inhibition of human SiHa cell growth in a cell viability assay.

TCC-SUP = test: cells; type: functional, cell-based, Homo sapiens; details: Homo sapiens, TCC-SUP
Description: SANGER: Inhibition of human TCCSUP cell growth in a cell viability assay.

A 172 = test: cells; type: functional, cell-based, Homo sapiens; details: Homo sapiens, A 172
Description: SANGER: Inhibition of human A172 cell growth in a cell viability assay.

A-427 = test: cells; type: functional, cell-based, Homo sapiens; details: Homo sapiens, A-427
Description: SANGER: Inhibition of human A427 cell growth in a cell viability assay.

A673 = test: cells; type: functional, cell-based, Homo sapiens; details: Homo sapiens, A673
Description: SANGER: Inhibition of human A673 cell growth in a cell viability assay.

BCPAP = test: cells; type: functional, cell-based, Homo sapiens; details: Homo sapiens, BCPAP
Description: SANGER: Inhibition of human BCPAP cell growth in a cell viability assay.

BL-41 = test: cells; type: functional, cell-based, Homo sapiens; details: Homo sapiens, BL-41
Description: SANGER: Inhibition of human BL-41 cell growth in a cell viability assay.

BL-70 = test: SANGER: Inhibition of human BL-70 cell growth in a cell viability assay.; type: functional, cell-based; details: Homo sapiens, BL-70
BT-20 = test: cells; type: functional, cell-based, Homo sapiens; details: Homo sapiens, BT-20
Description: SANGER: Inhibition of human BT-20 cell growth in a cell viability assay.

CAL-120 = test: cells; type: functional, cell-based, Homo sapiens; details: Homo sapiens, CAL-120
Description: SANGER: Inhibition of human CAL-120 cell growth in a cell viability assay.

TUR = test: cells; type: functional, cell-based, Homo sapiens; details: Homo sapiens, TUR
Description: SANGER: Inhibition of human TUR cell growth in a cell viability assay.

UACC-812 = test: cells; type: functional, cell-based, Homo sapiens; details: Homo sapiens, UACC-812
Description: SANGER: Inhibition of human UACC-812 cell growth in a cell viability assay.

VM-CUB-1 = test: cells; type: functional, cell-based, Homo sapiens; details: Homo sapiens, VM-CUB-1
Description: SANGER: Inhibition of human VM-CUB-1 cell growth in a cell viability assay.

YKG-1 = test: cells; type: functional, cell-based, Homo sapiens; details: Homo sapiens, YKG-1
Description: SANGER: Inhibition of human YKG-1 cell growth in a cell viability assay.

## Cc1cc([N+](=O)[O-])ccc1NS(=O)(=O)c1cc(Cl)ccc1Cl
D-542MG
  IC50: 0.277 µM
DG-75
  IC50: > 32 µM
Daudi
  IC50: 1.25 µM
FTC-133
  IC50: 6.74 µM
GDM-1
  IC50: 8.37 µM
H4
  IC50: 2.59 µM
HCC1937
  IC50: 6.27 µM
HTC-C3
  IC50: 3.03 µM
HuO-3N1
  IC50: 13.4 µM
IST-SL2
  IC50: 8.24 µM
KP-4
  IC50: 1.66 µM
KU-19-19
  IC50: > 32 µM
KYSE-270
  IC50: 3.03 µM
KYSE-70 cell line
  IC50: 0.812 µM
MC-CAR
  IC50: 8.99 µM
ME-180
  IC50: 2.82 µM
MG-63
  IC50: 5.96 µM
NCI-H1437
  IC50: 2.73 µM
NCI-H1993
  IC50: 17.2 µM
NCI-H719
  IC50: > 32 µM
NCI-H748
  IC50: > 32 µM
NY
  IC50: 3.32 µM
OAW-42
  IC50: 2.78 µM
OE33
  IC50: 9.49 µM
PA-1
  IC50: 2.9 µM
RMG-I
  IC50: 11.5 µM
RO82-W-1
  IC50: > 32 µM
RPMI-2650
  IC50: 1.98 µM
RT-112
  IC50: 6.11 µM
SBC-5
  IC50: 1.61 µM
SCC-3
  IC50: > 32 µM
SKG-IIIa
  IC50: > 32 µM
SW780
  IC50: 6.1 µM
SiHa
  IC50: 19.7 µM
TCC-SUP
  IC50: 4.81 µM
A 172
  IC50: 5.91 µM
A-427
  IC50: 0.23 µM
A673
  IC50: 3 µM
BCPAP
  IC50: 2.05 µM
BL-41
  IC50: > 32 µM
BL-70
  IC50: 5.1 µM
BT-20
  IC50: 8.51 µM
CAL-120
  IC50: 6.02 µM
TUR
  IC50: 9.58 µM
UACC-812
  IC50: > 32 µM
VM-CUB-1
  IC50: 8.15 µM
YKG-1
  IC50: 5.66 µM

## Oc1ccc2ccccc2c1SSc1c(O)ccc2ccccc12
D-542MG
  IC50: 27.2 µM
DG-75
  IC50: > 32 µM
Daudi
  IC50: 5.68 µM
FTC-133
  IC50: > 32 µM
GDM-1
  IC50: > 32 µM
H4
  IC50: > 32 µM
HCC1937
  IC50: > 32 µM
HTC-C3
  IC50: > 32 µM
HuO-3N1
  IC50: > 32 µM
IST-SL2
  IC50: 20.7 µM
KP-4
  IC50: > 32 µM
KU-19-19
  IC50: > 32 µM
KYSE-270
  IC50: > 32 µM
KYSE-70 cell line
  IC50: > 32 µM
MC-CAR
  IC50: 5.71 µM
ME-180
  IC50: > 32 µM
MG-63
  IC50: > 32 µM
NCI-H1437
  IC50: > 32 µM
NCI-H1993
  IC50: > 32 µM
NCI-H719
  IC50: 12.9 µM
NCI-H748
  IC50: > 32 µM
NY
  IC50: > 32 µM
OAW-42
  IC50: > 32 µM
OE33
  IC50: > 32 µM
PA-1
  IC50: 27.1 µM
RMG-I
  IC50: > 32 µM
RO82-W-1
  IC50: > 32 µM
RPMI-2650
  IC50: > 32 µM
RT-112
  IC50: 27.3 µM
SBC-5
  IC50: > 32 µM
SCC-3
  IC50: > 32 µM
SKG-IIIa
  IC50: > 32 µM
SW780
  IC50: > 32 µM
SiHa
  IC50: > 32 µM
TCC-SUP
  IC50: > 32 µM
A 172
  IC50: > 32 µM
A-427
  IC50: > 32 µM
A673
  IC50: > 32 µM
BCPAP
  IC50: > 32 µM
BL-41
  IC50: 3.1 µM
BL-70
  IC50: 2.04 µM
BT-20
  IC50: > 32 µM
CAL-120
  IC50: > 32 µM
TUR
  IC50: > 32 µM
UACC-812
  IC50: > 32 µM
VM-CUB-1
  IC50: > 32 µM
YKG-1
  IC50: > 32 µM

## CCC/C=C/C=C/C(=O)O[C@H]1/C(=C/C(=O)OC)C[C@H]2C[C@H]([C@@H](C)O)OC(=O)C[C@H](O)C[C@@H]3C[C@H](OC(C)=O)C(C)(C)[C@](O)(C[C@@H]4C/C(=C/C(=O)OC)C[C@H](/C=C/C(C)(C)[C@]1(O)O2)O4)O3 [BRYOSTATIN 1]
D-542MG
  IC50: 0.00756 µM
DG-75
  IC50: > 0.008 µM
Daudi
  IC50: > 0.008 µM
FTC-133
  IC50: > 0.008 µM
GDM-1
  IC50: > 0.008 µM
H4
  IC50: > 0.008 µM
HCC1937
  IC50: > 0.008 µM
HTC-C3
  IC50: > 0.008 µM
HuO-3N1
  IC50: > 0.008 µM
IST-SL2
  IC50: > 0.008 µM
KP-4
  IC50: > 0.008 µM
KU-19-19
  IC50: > 0.008 µM
KYSE-270
  IC50: > 0.008 µM
KYSE-70 cell line
  IC50: > 0.008 µM
MC-CAR
  IC50: > 0.008 µM
ME-180
  IC50: > 0.008 µM
MG-63
  IC50: > 0.008 µM
NCI-H1437
  IC50: > 0.008 µM
NCI-H1993
  IC50: > 0.008 µM
NCI-H719
  IC50: > 0.008 µM
NCI-H748
  IC50: > 0.008 µM
NY
  IC50: > 0.008 µM
OAW-42
  IC50: > 0.008 µM
OE33
  IC50: > 0.008 µM
PA-1
  IC50: > 0.008 µM
RMG-I
  IC50: > 0.008 µM
RO82-W-1
  IC50: > 0.008 µM
RPMI-2650
  IC50: > 0.008 µM
RT-112
  IC50: > 0.008 µM
SBC-5
  IC50: > 0.008 µM
SCC-3
  IC50: > 0.008 µM
SKG-IIIa
  IC50: > 0.008 µM
SW780
  IC50: > 0.008 µM
SiHa
  IC50: > 0.008 µM
TCC-SUP
  IC50: > 0.008 µM
A 172
  IC50: > 0.008 µM
A-427
  IC50: > 0.008 µM
A673
  IC50: > 0.008 µM
BCPAP
  IC50: > 0.008 µM
BL-41
  IC50: > 0.008 µM
BL-70
  IC50: > 0.008 µM
BT-20
  IC50: > 0.008 µM
CAL-120
  IC50: > 0.008 µM
TUR
  IC50: > 0.008 µM
UACC-812
  IC50: > 0.008 µM
VM-CUB-1
  IC50: > 0.008 µM
YKG-1
  IC50: 0.00413 µM

From ChEMBL document CHEMBL1201861, “Genomics of Drug Sensitity in Cancer screening data, Wellcome Trust Sanger Institute”
